Laboratory results reported in patent US20230330060A1, “COMPOUNDS FOR TREATMENT OF HEART FAILURE” (Sulfateq B.V., priority 2020, published 2023).

Legend:
[1] = test system: H9C2 cardiomyocytes; assay: Quantification of phenylephrine-induced EGFP synthesis as surrogate for cell size (hypertrophy); type: cell-based, rat; details: for SUL EGFP Inhibition (%): 30 μM SUL compound, calculated as 100%-Emax; for Expression of EGFP induced by phenylephrine (FIG. 3): preincubation with 30 μM compound
Protocol: (§1) Rat H9C2 cardiomyoblasts (ATCC CRL-1446) were maintained in DMEM medium containing 10% fetal bovine serum and 1% Penicillin-Streptomycin solution (Sigma-Aldrich) and passaged when the cultures reach a confluency of 70%. Prior to experiments, H9C2 myoblasts were differentiated to cardiomyocytes by serum reduction (to 1%) and stimulation with 20 nM retinoic acid for 5 days. Differentiated H9C2 cardiomyocytes were seeded at 0.6·10^5 cells/cm^2 for all experiments.
H9C2 cardiomyocytes (0.6·10^5 cells/cm2) were infected with CMV-copGPF (MOI 10) in culture medium without serum for 24 h. H9C2 cardiomyocytes were pre-incubated with 30 μM SUL compounds under standard culture conditions for 30 min and then stimulated with phenylephrine (dose range 2·10^−5 to 1·10^−11 M) for an additional period of 24 h. Thereafter H9C2 cardiomyocytes were lysed in 100 μl soft lysis buffer (25 mM Tris, 2 mM Dithiothreitol, 2 mM EDTA, 1% Triton X-100, pH 7.4). per well and fluorescence intensity of the obtained supernatant was recorded in a CLARIOStar Plus plate reader (BMG Labtech) equipped with a FITC filter set (excitation 488 nm with 10 nm bandwidth; emission 515 with a 20 nm bandwidth).
All experiments were performed in triplicate per condition and averaged. Data obtained from two individual experiments were used for evaluation in GraphPad Prism 8.0 (GraphPad Software Inc, Ca). Average H9C2 cardiomyocyte cell size was associated to average EGFP levels using linear regression. Phenylephrine-induced EGFP synthesis was normalized, using baseline levels as 0% and maximum EGFP recordings as 100%. All datasets were normalized to vehicle controls. 4 parameter non-linear regression was used to determine the efficacy of potency of phenylephrine to induce GFP synthesis. The efficacy of SUL compounds to inhibit phenylephrine-induced EGFP synthesis was calculated as 100%-Emax, wherein Emax is the maximal effect evoked by phenylephrine.

[2] = test system: H9C2 cardiomyocytes; assay: Determination of cell size (cell surface area) after phenylephrine; type: cell-based, rat; details: 24 h
Protocol: as §1
H9C2 cardiomyocytes were serum starved for 24 h and thereafter exposed to different concentrations of phenylephrine (dose range 2·10^−5 to 1·10^−11 M) for an additional 24 h. Cells were washed in ice-cold PBS and fixed by 2% paraformaldehyde in PBS at room temperature for 10 min. Fixed cells were incubated with 5 μM Rhodamine-conjugated Phalloidin (ThermoFisher Scientific) and washed extensively with PBS. Fluorescent pictures were taken randomly with an Zeiss AxioObserver Z1 microscope and cell size was analyzed with CellProfiler software [McQuin, 2018].

[3] = test system: H9C2 cardiomyocytes; assay: Protein synthesis by H9C2 cardiomyocytes after phenylephrine; type: cell-based; details: Rattus norvegicus, FIG. 2D, read-out: EC50 for increase of protein synthesis

Compound | SUL EGFP Inhibition (%) [1] | Expression of EGFP induced by phenylephrine (FIG. 3) [1] | other results
Cc1c(C)c2c(c(C)c1O)CC[C@@](C)(C(=O)N1CCN(CCO)CC1)O2 [SUL-138, (S)-(6-hydroxy-2,5,7,8-tetramethylchroman-2-yl)(4-(2-hydroxyethyl)piperazin-1-yl)methanone] | 63.18% | reduced the expression of EGFP | –
C[C@H]1CCC/C=C/[C@@H]2C[C@H](O)C[C@H]2[C@H](O)/C=C/C(=O)O1 [Brefeldin A, reference compound] | – | – | Phenylephrine-induced increase in EGFP fluorescence (FIG. 2F) ([1]; addition of protein synthesis inhibitor): inhibits the phenylephrine-induced increase in EGFP fluorescence
Cc1c(C)c(O)c(CC[C@@](C)(O)C(=O)N2CCN(CCO)CC2)c(C)c1O [SUL-138M2, 4-(2,5-dihydroxy-3,4,6-trimethylphenyl)-2-hydroxy-1-(4-(2-hydroxyethyl)piperazin-1-yl)-2-methylbutan-1-one] | 43.92% | – | –
CNC[C@H](O)c1cccc(O)c1 [Phenylephrine] | – | – | EC50 ([1]; Rattus norvegicus, H9C2 cardiomyocytes transformed with CMV-EGFP lentiviral particles, FIG. 2B, read-out: EC50 for increase of EGFP fluorescence): 5.2 nM; H9C2 cardiomyocyte cell surface area ([2]; 2·10^−5 M phenylephrine, vehicle-treated control 791±263 μm^2): 3278±296 μm^2; EC50 ([2]; Rattus norvegicus, H9c2, phenylephrine 1·10^−11 to 2·10^−5 M, FIG. 2A, read-out: EC50 for increase of H9C2 cardiomyocyte cell surface area): 0.74 nM; EC50 [3]: 0.55 nM
Cc1c(C)c2c(c(C)c1O)CC[C@@](C)(C(=O)N[C@@H]1CCCNC1)O2 [SUL-13, (S)-6-hydroxy-2,5,7,8-tetramethyl-N-((R)-piperidin-3-yl)chromane-2-carboxamide] | 68.85% | reduced the expression of EGFP | –
COC(=O)CNC(=O)C1(C)CCc2c(C)c(O)c(C)c(C)c2O1 (stereo not shown) [SUL-99, methyl [(6-hydroxy-2,5,7,8-tetramethyl-3,4-dihydro-2H-1-benzopyran-2-carbonyl)amino]acetate, reference compound] | 55.11% | reduced the expression of EGFP | –
Cc1c(C)c2c(c(C)c1O)CCC(C)(C(=O)O)O2 (stereo not shown) [SUL-11, 6-hydroxy-2,5,7,8-tetramethylchroman-2-carboxylic acid (Trolox), reference compound] | 54.05% | reduced the expression of EGFP | –
Cc1c(C)c2c(c(C)c1O)CC[C@@](C)(C(=O)N1CCNCC1)O2 [SUL-151, (S)-(6-hydroxy-2,5,7,8-tetramethylchroman-2-yl)(piperazin-1-yl)methanone] | 56.8% | reduced the expression of EGFP | –
